Columns and labels:
[1] = target: Acetylcholinesterase (Homo sapiens, UniProt P22303); experiment: DRUGMATRIX: Acetylcholinesterase enzyme inhibition (substrate: acetylthiocholine); type: cell-based, HEK293; conditions: hek293; Not Active = under 50% inhibition at 10 µM
[2] = target: T1, Neutrophil elastase (Homo sapiens, UniProt P08246); type: tissue-based;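 further: inhibition of neutrophil elastase enzyme activity, measured with a p-nitroanilide-linked peptide substrate; in other assays of this panel Not Active means under 50% inhibition at 10 µM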
T1 sequence (P08246 whole entry): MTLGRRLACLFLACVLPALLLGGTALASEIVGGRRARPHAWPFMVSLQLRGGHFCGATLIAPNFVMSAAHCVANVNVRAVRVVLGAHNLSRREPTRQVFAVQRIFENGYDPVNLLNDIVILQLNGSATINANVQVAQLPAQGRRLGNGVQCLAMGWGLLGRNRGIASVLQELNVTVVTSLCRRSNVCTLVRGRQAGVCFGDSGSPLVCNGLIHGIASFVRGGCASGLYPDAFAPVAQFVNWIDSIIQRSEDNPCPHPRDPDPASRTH

[3] = target: Histamine H2 receptor (Homo sapiens, UniProt P25021); type: cell membranes, CHO-K1, Membrane; conditions: cho-k1; further: in other assays of this panel Not Active means under 50% inhibition at 10 µM
[4] = target: Vascular endothelial growth factor receptor 1 (Homo sapiens, UniProt P17948); experiment: biochemical; type: cell-based, HUVEC; conditions: huvec; further: in other assays of this panel Not Active means under 50% inhibition at 10 µM
[5] = DRUGMATRIX: Nicotinic Acetylcholine radioligand binding (ligand: [125I] Epibatidine); type: cell membranes, Membrane; conditions: imr-32; Not Active = under 50% inhibition at 10 µM
[6] = target: Epidermal growth factor receptor (Homo sapiens, UniProt P00533); experiment: DRUGMATRIX: Protein Tyrosine Kinase, EGF Receptor enzyme inhibition (substrate: Poly(Glu:Tyr)); type: cell-based, Insect cells; conditions: insect cells; Not Active = under 50% inhibition at 10 µM
[7] = target: T2, Cysteinyl leukotriene receptor 1 (Homo sapiens, UniProt Q9Y271); type: cell membranes, Membrane; conditions: cho-k1; further: in other assays of this panel Not Active means under 50% inhibition at 10 µM
T2 sequence (Q9Y271 whole entry): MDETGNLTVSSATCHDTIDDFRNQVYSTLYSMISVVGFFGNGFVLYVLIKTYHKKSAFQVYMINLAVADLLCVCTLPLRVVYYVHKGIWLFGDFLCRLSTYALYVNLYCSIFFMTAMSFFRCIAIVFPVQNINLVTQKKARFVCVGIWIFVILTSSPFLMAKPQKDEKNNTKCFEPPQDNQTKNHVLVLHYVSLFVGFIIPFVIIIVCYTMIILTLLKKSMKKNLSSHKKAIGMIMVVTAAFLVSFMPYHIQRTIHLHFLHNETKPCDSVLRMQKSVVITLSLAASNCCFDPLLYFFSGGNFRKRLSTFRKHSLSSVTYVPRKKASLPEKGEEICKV

Sequence of Vascular endothelial growth factor receptor 1 (P17948 whole entry): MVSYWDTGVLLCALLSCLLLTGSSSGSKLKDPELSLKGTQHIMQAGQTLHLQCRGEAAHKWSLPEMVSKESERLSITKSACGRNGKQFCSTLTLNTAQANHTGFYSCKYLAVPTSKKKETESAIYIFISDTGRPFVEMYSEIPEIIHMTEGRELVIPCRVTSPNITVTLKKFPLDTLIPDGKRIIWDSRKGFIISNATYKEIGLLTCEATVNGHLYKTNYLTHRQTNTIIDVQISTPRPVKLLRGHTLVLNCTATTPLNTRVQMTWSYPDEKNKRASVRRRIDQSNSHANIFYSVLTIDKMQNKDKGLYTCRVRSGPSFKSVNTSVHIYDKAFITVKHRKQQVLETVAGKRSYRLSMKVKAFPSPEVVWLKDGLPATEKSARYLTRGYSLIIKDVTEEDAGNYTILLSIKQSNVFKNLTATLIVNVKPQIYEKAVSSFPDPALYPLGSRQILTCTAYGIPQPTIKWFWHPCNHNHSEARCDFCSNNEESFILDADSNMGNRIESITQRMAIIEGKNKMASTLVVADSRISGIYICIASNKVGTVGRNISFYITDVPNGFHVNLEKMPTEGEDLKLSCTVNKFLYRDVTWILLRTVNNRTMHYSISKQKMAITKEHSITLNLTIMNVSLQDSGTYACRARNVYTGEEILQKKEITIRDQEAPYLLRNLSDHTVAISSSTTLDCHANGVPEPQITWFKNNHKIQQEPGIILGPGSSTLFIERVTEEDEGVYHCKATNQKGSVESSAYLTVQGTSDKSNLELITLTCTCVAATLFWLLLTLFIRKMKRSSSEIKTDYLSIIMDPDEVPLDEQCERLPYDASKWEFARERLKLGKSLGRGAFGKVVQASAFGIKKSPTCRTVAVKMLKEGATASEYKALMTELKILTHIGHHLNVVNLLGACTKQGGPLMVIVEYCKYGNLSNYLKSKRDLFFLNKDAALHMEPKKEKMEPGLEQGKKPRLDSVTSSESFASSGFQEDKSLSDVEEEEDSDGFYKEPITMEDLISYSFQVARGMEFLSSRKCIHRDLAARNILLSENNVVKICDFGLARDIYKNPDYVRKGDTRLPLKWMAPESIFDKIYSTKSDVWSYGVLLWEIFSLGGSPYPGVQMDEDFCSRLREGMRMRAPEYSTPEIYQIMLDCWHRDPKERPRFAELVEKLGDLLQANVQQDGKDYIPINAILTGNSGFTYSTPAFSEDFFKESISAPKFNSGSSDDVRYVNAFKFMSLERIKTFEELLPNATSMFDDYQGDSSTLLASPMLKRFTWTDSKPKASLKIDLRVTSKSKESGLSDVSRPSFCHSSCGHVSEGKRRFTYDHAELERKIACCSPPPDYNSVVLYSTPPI
Sequence of Acetylcholinesterase (P22303 whole entry): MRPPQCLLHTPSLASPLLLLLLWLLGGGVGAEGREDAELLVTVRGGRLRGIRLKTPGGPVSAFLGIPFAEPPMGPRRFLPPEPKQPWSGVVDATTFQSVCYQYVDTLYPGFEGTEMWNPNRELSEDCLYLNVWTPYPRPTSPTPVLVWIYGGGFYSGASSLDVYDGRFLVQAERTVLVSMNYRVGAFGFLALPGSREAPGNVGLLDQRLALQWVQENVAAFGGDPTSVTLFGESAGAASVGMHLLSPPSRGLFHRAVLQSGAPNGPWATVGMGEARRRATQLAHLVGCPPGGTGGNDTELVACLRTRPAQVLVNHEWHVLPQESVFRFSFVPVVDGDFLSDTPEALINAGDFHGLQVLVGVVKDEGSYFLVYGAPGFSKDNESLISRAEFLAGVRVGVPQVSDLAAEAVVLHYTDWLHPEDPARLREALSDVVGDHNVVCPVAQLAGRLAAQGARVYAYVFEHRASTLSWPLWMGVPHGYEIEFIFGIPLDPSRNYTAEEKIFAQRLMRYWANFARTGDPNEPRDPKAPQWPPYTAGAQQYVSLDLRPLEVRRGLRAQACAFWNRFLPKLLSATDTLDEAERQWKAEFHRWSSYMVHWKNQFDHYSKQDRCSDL
Sequence of Histamine H2 receptor (P25021 whole entry): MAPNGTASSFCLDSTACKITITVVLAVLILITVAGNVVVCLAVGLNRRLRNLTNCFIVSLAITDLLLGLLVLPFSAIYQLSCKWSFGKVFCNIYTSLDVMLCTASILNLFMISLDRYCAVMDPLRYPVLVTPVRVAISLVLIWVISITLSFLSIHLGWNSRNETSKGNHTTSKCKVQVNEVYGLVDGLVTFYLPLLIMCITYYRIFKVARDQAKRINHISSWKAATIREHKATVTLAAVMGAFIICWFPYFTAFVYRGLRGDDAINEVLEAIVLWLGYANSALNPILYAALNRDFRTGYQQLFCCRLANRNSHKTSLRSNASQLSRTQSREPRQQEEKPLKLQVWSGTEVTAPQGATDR
Sequence of Epidermal growth factor receptor (P00533 whole entry): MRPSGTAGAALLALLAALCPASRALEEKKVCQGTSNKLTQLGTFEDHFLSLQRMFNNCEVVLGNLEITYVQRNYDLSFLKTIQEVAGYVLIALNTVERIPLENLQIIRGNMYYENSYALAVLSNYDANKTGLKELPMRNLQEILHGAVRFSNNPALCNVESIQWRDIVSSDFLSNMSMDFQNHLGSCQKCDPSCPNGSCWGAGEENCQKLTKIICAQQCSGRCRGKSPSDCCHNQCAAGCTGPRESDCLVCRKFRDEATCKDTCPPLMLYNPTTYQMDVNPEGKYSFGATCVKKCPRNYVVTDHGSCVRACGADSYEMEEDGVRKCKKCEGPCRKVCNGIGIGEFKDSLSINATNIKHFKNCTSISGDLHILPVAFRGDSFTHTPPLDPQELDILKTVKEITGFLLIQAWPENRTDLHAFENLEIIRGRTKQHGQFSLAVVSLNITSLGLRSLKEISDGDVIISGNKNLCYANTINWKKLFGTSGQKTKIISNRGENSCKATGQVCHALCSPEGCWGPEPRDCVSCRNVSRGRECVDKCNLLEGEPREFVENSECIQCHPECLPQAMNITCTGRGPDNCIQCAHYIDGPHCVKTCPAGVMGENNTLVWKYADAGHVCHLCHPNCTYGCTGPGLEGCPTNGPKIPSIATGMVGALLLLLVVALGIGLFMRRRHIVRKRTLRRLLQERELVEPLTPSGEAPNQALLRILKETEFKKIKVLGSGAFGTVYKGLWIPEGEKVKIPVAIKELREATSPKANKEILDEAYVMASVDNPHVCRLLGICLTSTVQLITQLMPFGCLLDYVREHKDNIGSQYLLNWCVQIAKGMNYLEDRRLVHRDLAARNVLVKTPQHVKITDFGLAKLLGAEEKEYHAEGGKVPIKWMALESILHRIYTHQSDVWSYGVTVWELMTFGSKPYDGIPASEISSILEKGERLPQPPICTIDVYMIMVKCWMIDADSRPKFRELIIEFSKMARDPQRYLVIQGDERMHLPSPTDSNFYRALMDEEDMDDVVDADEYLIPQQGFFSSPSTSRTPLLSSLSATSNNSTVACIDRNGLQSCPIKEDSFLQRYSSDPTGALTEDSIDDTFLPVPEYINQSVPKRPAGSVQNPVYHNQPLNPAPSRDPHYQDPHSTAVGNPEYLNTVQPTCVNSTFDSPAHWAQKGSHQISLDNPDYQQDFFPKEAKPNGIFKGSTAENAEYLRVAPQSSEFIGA

CCC(=O)O[C@H]1[C@H](O[C@@H]2[C@@H](C)[C@H](O[C@H]3C[C@@](C)(OC)[C@@H](O)[C@H](C)O3)[C@@H](C)C(=O)O[C@H](CC)[C@@](C)(O)[C@H](O)[C@@H](C)C(=O)[C@H](C)C[C@@]2(C)O)O[C@H](C)C[C@@H]1N(C)C [ERYTHROMYCIN PROPIONATE]
Not Active: IC50 [1] | IC50 [2] | IC50 [3] | IC50 [4] | IC50 [5] | Ki [5] | IC50 [6] | IC50 [7]

C=C(CC)C(=O)c1ccc(OCC(=O)O)c(Cl)c1Cl [ETHACRYNIC ACID]
Not Active: IC50 [1] | IC50 [2] | IC50 [3] | IC50 [4] | IC50 [5] | Ki [5] | IC50 [6] | IC50 [7]

C#C[C@]1(O)CC[C@H]2[C@@H]3CCc4cc(O)ccc4[C@H]3CC[C@@]21C [ETHINYL ESTRADIOL]
Not Active: IC50 [1] | IC50 [2] | IC50 [3] | IC50 [4] | IC50 [5] | Ki [5] | IC50 [6] | IC50 [7]

OCCO [ETHYLENE GLYCOL]
Not Active: IC50 [1] | IC50 [2] | IC50 [3] | IC50 [4] | IC50 [5] | Ki [5] | IC50 [6] | IC50 [7]

CC(=O)OCC(CCn1cnc2cnc(N)nc21)COC(C)=O [FAMCICLOVIR]
Not Active: IC50 [1] | IC50 [2] | IC50 [3] | IC50 [4] | IC50 [5] | Ki [5] | IC50 [6] | IC50 [7]

O=C(O)Cc1ccc(-c2ccccc2)cc1 [FELBINAC]
Not Active: IC50 [1] | IC50 [2] | IC50 [3] | IC50 [4] | IC50 [5] | Ki [5] | IC50 [6] | IC50 [7]

CCOC(=O)C1=C(C)NC(C)=C(C(=O)OC)C1c1cccc(Cl)c1Cl (stereo not drawn) [FELODIPINE]
Not Active: IC50 [1] | IC50 [2] | IC50 [3] | IC50 [4] | IC50 [5] | Ki [5] | IC50 [6] | IC50 [7]

CC(C(=O)O)c1ccc(-c2ccccc2)c(F)c1 (stereo not drawn) [FLURBIPROFEN]
Not Active: IC50 [1] | IC50 [2] | IC50 [3] | IC50 [4] | IC50 [5] | Ki [5] | IC50 [6] | IC50 [7]

Cc1cn[nH]c1 [FOMEPIZOLE]
Not Active: IC50 [1] | IC50 [2] | IC50 [3] | IC50 [4] | IC50 [5] | Ki [5] | IC50 [6] | IC50 [7]

NC[C@@H]1O[C@H](O[C@H]2[C@@H](O)[C@H](O[C@@H]3[C@@H](O)[C@H](N)C[C@H](N)[C@H]3O[C@H]3O[C@H](CN)[C@@H](O)[C@H](O)[C@H]3N)O[C@@H]2CO)[C@H](N)[C@@H](O)[C@@H]1O [FRAMYCETIN]
Not Active: IC50 [1] | IC50 [2] | IC50 [3] | IC50 [4] | IC50 [5] | Ki [5] | IC50 [6] | IC50 [7]

C[C@H]([C@](O)(Cn1cncn1)c1ccc(F)cc1F)S(C)(=O)=O [GENACONAZOLE]
Not Active: IC50 [1] | IC50 [2] | IC50 [3] | IC50 [4] | IC50 [5] | Ki [5] | IC50 [6] | IC50 [7]

Cc1cnc(C(=O)NCCc2ccc(S(=O)(=O)NC(=O)NC3CCCCC3)cc2)cn1 [GLIPIZIDE]
Not Active: IC50 [1] | IC50 [2] | IC50 [3] | IC50 [4] | IC50 [5] | Ki [5] | IC50 [6] | IC50 [7]

Cc1c(F)c(N2CCNC(C)C2)cc2c1c(=O)c(C(=O)O)cn2C1CC1 (stereo not drawn) [GREPAFLOXACIN]
Not Active: IC50 [1] | IC50 [2] | IC50 [3] | IC50 [4] | IC50 [5] | Ki [5] | IC50 [6] | IC50 [7]

COc1ccccc1OCC(O)CO (stereo not drawn) [GUAIFENESIN]
Not Active: IC50 [1] | IC50 [2] | IC50 [3] | IC50 [4] | IC50 [5] | Ki [5] | IC50 [6] | IC50 [7]

N=C(N)N/N=C/c1c(Cl)cccc1Cl [GUANABENZ]
Not Active: IC50 [1] | IC50 [2] | IC50 [3] | IC50 [4] | IC50 [5] | Ki [5] | IC50 [6] | IC50 [7]

C[C@]12CCC(=O)C=C1CC[C@@H]1[C@@H]2[C@@H](O)C[C@@]2(C)[C@H]1CC[C@]2(O)C(=O)CO [HYDROCORTISONE]
Not Active: IC50 [1] | IC50 [2] | IC50 [3] | IC50 [4] | IC50 [5] | Ki [5] | IC50 [6] | IC50 [7]

C/C=C\c1ccc(O)c(OC)c1 [ISOEUGENOL]
Not Active: IC50 [1] | IC50 [2] | IC50 [3] | IC50 [4] | IC50 [5] | Ki [5] | IC50 [6] | IC50 [7]

NC[C@H]1O[C@H](O[C@H]2[C@H](O)[C@@H](O[C@H]3O[C@H](CO)[C@@H](O)[C@H](N)[C@H]3O)[C@H](N)C[C@@H]2N)[C@H](O)[C@@H](O)[C@@H]1O [KANAMYCIN]
Not Active: IC50 [1] | IC50 [2] | IC50 [3] | IC50 [4] | IC50 [5] | Ki [5] | IC50 [6] | IC50 [7]

CC[C@H](C)C(=O)O[C@H]1C[C@@H](C)C=C2C=C[C@H](C)[C@H](CC[C@@H]3C[C@@H](O)CC(=O)O3)[C@H]21 [LOVASTATIN]
Not Active: IC50 [1] | IC50 [2] | IC50 [3] | IC50 [4] | IC50 [5] | Ki [5] | IC50 [6] | IC50 [7]

CC(C(=O)O)c1ccc(CC2CCCC2=O)cc1 (stereo not drawn) [LOXOPROFEN]
Not Active: IC50 [1] | IC50 [2] | IC50 [3] | IC50 [4] | IC50 [5] | Ki [5] | IC50 [6] | IC50 [7]

Cc1cccc(Nc2ccccc2C(=O)O)c1C [MEFENAMIC ACID]
Not Active: IC50 [1] | IC50 [2] | IC50 [3] | IC50 [4] | IC50 [5] | Ki [5] | IC50 [6] | IC50 [7]
